The values below come from patent US7273717B2 (priority 2003, dated 2007).

The test system of experiment [1] is GS-9005 hydrolase B. It is filed as biochemical, human.
For experiment [2], the target named is GS-9005 hydrolase A. Format: biochemical, human. The following applies: pH 6.5; read-out: Inhibition profile IC50, 9005 Hydrolase A.
[3] abbreviates: pH 6.5, read-out: Inhibition profile IC50, 9005 Hydrolase B.
Where [4] appears, read: read-out: concentration at which GS-9005 hydrolase B is inhibited by 50%.

Each structure is given as a SMILES string. Like-named read-outs stand apart in the source and are kept apart here. Peptide text beside a SMILES is read from it. * marks the point of attachment. Cbz = O=C(OCc1ccccc1)*

As to `O=c1oc(Cl)c(Cl)c2ccccc12` [3,4 DCI, 3,4 dichloroisocoumarin], the “inhibition of GS-9005 hydrolase B (in words)” value in experiment [1] is recorded as “inhibited”. Moreover, the values for the IC50 in experiment [1] (setting [3]), in experiment [1] (setting [4]) and in experiment [2] were 4 µM, ~4 µM and > 150 µM, respectively.
As for `O=C[C@@H]1CCCN1C(=O)[C@@H]1CCCN1C(=O)OCc1ccccc1` [Cbz-pro-pro-COH, Carboxybenzoyl-Pro-Pro-COH] (Cbz-Pro-Pro-aldehyde), the IC50 in experiment [1] (setting [3]) and in experiment [1] (setting [4]) was > 100 µM each time.
In the case of `CCOP(=O)(OCC)Oc1ccc([N+](=O)[O-])cc1` [paraoxon], the IC50 in experiment [1] (setting [3]) is 0.02 µM; in experiment [1] (setting [4]), ~0.02 µM; in experiment [2], 0.03 µM.
